Data on 32 compounds can be found in US12473289B2, “Heterocyclic compounds as delta-5 desaturase inhibitors and methods of use” (Amgen Inc., priority 2019, dated 2025).

The target in this experiment is Delta-5-Desaturase (D5D) (Homo sapiens (Human), UniProt O60427). The experiment in a line: In vitro measurement of Delta-5-Desaturase inhibitory activity using DGLA-CoA and Arachidonyl-CoA mass spectrometric assays. Type of experiment: biochemical. The note with it: membrane preparations of D5D-overexpressing HEK293 6E cells; averaged over at least two independent runs. The procedure, abridged: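 DGLA-CoA and arachidonyl-CoA were read by RapidFire SPE triple-quad MS (negative mode, MRM) after a 1 h ambient-temperature reaction quenched with acetonitrile. Enzyme was D5D-overexpressing HEK293 6E membranes at 10 μg/mL final; substrate solution held 0.01 mM DGLA plus NADH, ATP and CoA. Inhibition was referenced to DMSO and no-enzyme wells; 4PL IC50.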
Sequence of Delta-5-Desaturase (D5D) (O60427 whole entry, species assumed): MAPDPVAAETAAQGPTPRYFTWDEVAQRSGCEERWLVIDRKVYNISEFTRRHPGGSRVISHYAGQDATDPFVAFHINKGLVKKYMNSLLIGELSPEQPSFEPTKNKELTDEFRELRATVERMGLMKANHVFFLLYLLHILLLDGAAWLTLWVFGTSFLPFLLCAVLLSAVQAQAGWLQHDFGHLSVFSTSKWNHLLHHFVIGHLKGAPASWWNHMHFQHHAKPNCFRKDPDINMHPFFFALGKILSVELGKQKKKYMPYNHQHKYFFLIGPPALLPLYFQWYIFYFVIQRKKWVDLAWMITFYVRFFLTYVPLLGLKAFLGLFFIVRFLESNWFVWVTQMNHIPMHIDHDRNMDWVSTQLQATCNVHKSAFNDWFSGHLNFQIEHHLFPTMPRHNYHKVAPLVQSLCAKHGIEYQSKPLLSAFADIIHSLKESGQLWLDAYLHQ

On to `CCc1nc2cc(OC)ccn2c(=O)c1-c1ccc(OCC(F)(F)F)nc1` [Example 1-60, 2-ethyl-8-methoxy-3-(6-(2,2,2-trifluoroethoxy)-3-pyridinyl)-4H-pyrido[1,2-a]pyrimidin-4-one], for which it took 37.8 nM to reach half-maximal inhibition (IC50). This counts as double-digit nanomolar.

Consider `COc1ccn2c(=O)c(-c3ccc(OC[C@@H]4CC4(F)F)cc3)c(C(F)(F)F)nc2c1` (single isomer, unassigned) [Example 1-84], for which the midpoint of inhibition, the IC50, lay at 2.7 nM.

Turning to `COc1cnn2c(=O)c(-c3cnn(CC4CC(F)(F)C4)c3)c(C(F)(F)F)nc2c1` [Example 39-55, 3-{1-[(3,3-difluorocyclobutyl)methyl)-1H-pyrazol-4-yl}-8-methoxy-2-(trifluoromethyl)-4H-pyrimido[1,2-b]pyridazin-4-one], the 50% inhibitory concentration (IC50) (as a rule, the concentration that gives 50% inhibition) is 748 nM. Compared with the last compound, the IC50 is about 280-fold higher.

`Cc1cnn2c(=O)c(-c3cnn(CC(F)(F)C(F)(F)F)c3)c(C(F)(F)F)nc2c1` [Example 39-40, 8-methyl-3-[1-(2,2,3,3,3-pentafluoropropyl)-1H-pyrazol-4-yl]-2-(trifluoromethyl)-4H-pyrimido[1,2-b]pyridazin-4-one] had an IC50 of 67 nM.

Compound `O=c1c(-c2ccc(OCC(F)(F)F)cc2)c(C(F)(F)F)nc2cc(OC(F)F)ccn12` [Example 1-66, 8-(difluoromethoxy)-3-(4-(2,2,2-trifluoroethoxy)phenyl)-2-(trifluoromethyl)-4H-pyrido[1,2-a]pyrimidin-4-one] showed an IC50 of 79.1 nM.

As for `C[C@H](O)c1ccn2c(=O)c(-c3ccc(OCC(F)(F)F)cc3)c(C(F)(F)F)nc2c1` [Example 30-1, 8-((1S)-1-hydroxyethyl)-3-(4-(2,2,2-trifluoroethoxy)phenyl)-2-(trifluoromethyl)-4H-pyrido[1,2-a]pyrimidin-4-one], the IC50 stood at 74.2 nM. The IC50 values of the last two compounds are within 1.5-fold of each other.

The compound `COc1ccn2c(=O)c(-c3nnn(CC(F)(F)C(F)(F)F)c3I)c(C(F)(F)F)nc2c1` [Example 52, 3-[5-Iodo-1-(2,2,3,3,3-pentafluoropropyl)-1H-1,2,3-triazol-4-yl]-8-methoxy-2-(trifluoromethyl)-4H-pyrido[1,2-a]pyrimidin-4-one] showed a 50% inhibitory concentration (IC50) of 158 nM.

For the compound `N#Cc1ccc2nc(C(F)(F)F)c(-c3cnn(CC(F)(F)C(F)(F)F)c3)c(=O)n2c1` [Example 39-9, 4-oxo-3-[1-(2,2,3,3,3-pentafluoropropyl)-1H-pyrazol-4-yl]-2-(trifluoromethyl)-4H-pyrido[1,2-a]pyrimidine-7-carbonitrile], the IC50 stood at 47.3 nM.

On to `CC[S@+]([O-])c1ccn2c(=O)c(-c3ccc(OCC(F)(F)F)cc3)c(C(F)(F)F)nc2c1` [Example 15-9, 8-((S)-ethylsulfinyl)-3-(4-(2,2,2-trifluoroethoxy)phenyl)-2-(trifluoromethyl)-4H-pyrido[1,2-a]pyrimidin-4-one], for which the IC50 is 191 nM.

With `N#Cc1ccn2c(=O)c(-c3cnn(CC(F)(F)C(F)(F)F)c3)c(C(F)F)nc2c1` [Example 1-85, 2-(difluoromethyl)-4-oxo-3-(1-(2,2,3,3,3-pentafluoropropyl)-1H-pyrazol-4-yl)-4H-pyrido[1,2-a]pyrimidine-8-carbonitrile], 148 nM corresponded to half-maximal inhibition (IC50).

The compound `CCNC(=O)c1ccn2c(=O)c(-c3ccc(OCC(F)(F)F)cc3)c(C(F)(F)F)nc2c1` [Example 12-4, N-ethyl-4-oxo-3-(4-(2,2,2-trifluoroethoxy)phenyl)-2-(trifluoromethyl)-4H-pyrido[1,2-a]pyrimidine-8-carboxamide] registered an IC50 of 685 nM.

The compound `O=c1c(-c2ccc(OCC(F)(F)F)cc2)c(C(F)(F)F)nc2cc(OCF)ccn12` [Example 17-2, 8-(fluoromethoxy)-3-(4-(2,2,2-trifluoroethoxy)phenyl)-2-(trifluoromethyl)-4H-pyrido[1,2-a]pyrimidin-4-one] displayed a 50% inhibitory concentration (IC50) of 48.6 nM.

In turn, `COc1ccn2c(=O)c(-c3ccc(OCC(F)(F)F)cc3Cl)c(C(F)(F)F)nc2c1` [Example 8-3, 3-(2-chloro-4-(2,2,2-trifluoroethoxy)phenyl)-8-methoxy-2-(trifluoromethyl)-4H-pyrido[1,2-a]pyrimidin-4-one] displayed an IC50 of 22.5 nM.

As for `O=c1c(-c2cnc(OCC(F)(F)F)nc2)c(C(F)(F)F)nc2ccc(Cl)cn12` [Example 39-18, 7-chloro-3-[2-(2,2,2-trifluoroethoxy)pyrimidin-5-yl]-2-(trifluoromethyl)-4H-pyrido[1,2-a]pyrimidin-4-one], the IC50 was > 67000 nM.

`COc1cc2nc(C(F)(F)F)c(-c3cnn(C[C@H]4CC4(F)F)c3)c(=O)n2cc1F` [Example 71, 3-(1-(((1R)-2,2-difluorocyclopropyl)methyl)-1H-pyrazol-4-yl)-7-fluoro-8-methoxy-2-(trifluoromethyl)-4H-pyrido[1,2-a]pyrimidin-4-one] had an IC50 of 31.7 nM.

As for `O=c1c(-c2ccc(OCC(F)(F)F)nc2)c(C(F)(F)F)nc2ccccn12` [Example 20, 3-(6-(2,2,2-Trifluoroethoxy)-3-pyridinyl)-2-(trifluoromethyl)-4H-pyrido[1,2-a]pyrimidin-4-one], 109 nM corresponded to half-maximal inhibition (IC50).

The compound `C=Cc1ccn2c(=O)c(-c3ccc(OCC(F)(F)F)cc3)c(C(F)(F)F)nc2c1` [Example 2-8, 8-ethenyl-3-(4-(2,2,2-trifluoroethoxy)phenyl)-2-(trifluoromethyl)-4H-pyrido[1,2-a]pyrimidin-4-one] displayed an IC50 of 25.4 nM.

On to `COc1ccn2c(=O)c(-c3ccc(OCC(F)(F)F)cc3)c(C)nc2c1` [Example 1-67, 8-methoxy-2-methyl-3-(4-(2,2,2-trifluoroethoxy)phenyl)-4H-pyrido[1,2-a]pyrimidin-4-one], for which 34.2 nM corresponded to half-maximal inhibition (IC50).

For the compound `O=c1c(-c2cnn(CC(F)(F)C(F)(F)F)c2)c(C(F)(F)F)nc2n1CCOC2` [Example 39-34, 3-[1-(2,2,3,3,3-pentafluoropropyl)-1H-pyrazol-4-yl]-2-(trifluoromethyl)-4H,6R,7H,9H-pyrimido[2,1-c][1,4]oxazin-4-one], the IC50 came to 30.2 nM.

On to `COc1ccn2c(=O)c(-c3ccn(-c4ccccc4)n3)c(C(F)(F)F)nc2c1` [Example 1-3, 8-methoxy-3-(1-phenyl-1H-pyrazol-3-yl)-2-(trifluoromethyl)-4H-pyrido[1,2-a]pyrimidin-4-one], for which half-maximal inhibition (IC50) required 371 nM.

`CN(C)Cc1ccn2c(=O)c(-c3cnn(CC(F)(F)C(F)(F)F)c3)c(C(F)(F)F)nc2c1` [Example 26, 8-((Dimethylamino)methyl)-3-(1-(2,2,3,3,3-pentafluoropropyl)-1H-pyrazol-4-yl)-2-(trifluoromethyl)-4H-pyrido[1,2-a]pyrimidin-4-one]: the midpoint of inhibition, the IC50, lay at 128 nM. Against the preceding compound, the IC50 is about 2.9-fold lower.

`C[S+]([O-])c1ccn2c(=O)c(-c3ccc(OCC(F)(F)F)cc3)c(C(F)(F)F)nc2c1` (centres unmarked) [Example 15-1, 8-(Methylsulfinyl)-3-(4-(2,2,2-trifluoroethoxy)phenyl)-2-(trifluoromethyl)-4H-pyrido[1,2-a]pyrimidin-4-one]: the IC50 worked out at 441 nM.

For `COc1ccn2c(=O)c(-c3nc(OCC(F)(F)F)cs3)c(C(F)(F)F)nc2c1` [Example 51, 8-Methoxy-3-[4-(2,2,2-trifluoroethoxy)-1,3-thiazol-2-yl]-2-(trifluoromethyl)-4H-pyrido[1,2-a]pyrimidin-4-one], inhibition was half-maximal at 2980 nM (IC50).

As for `CCCc1ccc(-c2c(C(F)(F)F)nc3cc(OC)ccn3c2=O)cc1` [Example 1-79, 8-methoxy-3-(4-propylphenyl)-2-(trifluoromethyl)-4H-pyrido[1,2-a]pyrimidin-4-one], the IC50 came to 3.6 nM.

Compound `O=c1c(-c2ccc(OCC(F)(F)F)cc2)c(C(F)(F)F)nc2cc(F)ccn12` [Example 2-3, 8-fluoro-3-(4-(2,2,2-trifluoroethoxy)phenyl)-2-(trifluoromethyl)-4H-pyrido[1,2-a]pyrimidin-4-one] displayed a concentration for half-maximal inhibition (IC50) of 88.4 nM. Against the preceding compound, the IC50 is about 25-fold higher.

`O=c1c(-c2ccc(OCC(F)(F)F)cc2F)c(C(F)(F)F)nc2ccccn12` [Example 5-1, 3-(2-Fluoro-4-(2,2,2-trifluoroethoxy)phenyl)-2-(trifluoromethyl)-4H-pyrido[1,2-a]pyrimidin-4-one] displayed an IC50 of 12.5 nM.

In turn, `COc1ccn2c(=O)c(-c3cnn(C[C@@H]4CC4(F)F)c3)c(C(F)(F)F)nc2c1` [Example 70, 3-(1-{[(1S)-2,2-Difluorocyclopropyl]methyl}-1H-pyrazol-4-yl)-8-methoxy-2-(trifluoromethyl)-4H-pyrido[1,2-a]pyrimidin-4-one] came in with a half-maximal inhibitory concentration (IC50) of 10.5 nM.

In turn, `COc1ccn2c(=O)c(-c3ccc(OC(F)(F)F)cc3)c(C(F)(F)F)nc2c1` [Example 1-49, 8-methoxy-3-(4-(trifluoromethoxy)phenyl)-2-(trifluoromethyl)-4H-pyrido[1,2-a]pyrimidin-4-one] yielded a half-maximal inhibitory concentration (IC50) of 5.4 nM.

Consider `COc1cnc2nc(C(F)(F)F)c(-c3cnn(CC(F)(F)C(F)(F)F)c3)c(=O)n2c1` [Example 40-1, 7-Methoxy-3-[1-(2,2,3,3,3-pentafluoropropyl)-1H-pyrazol-4-yl]-2-(trifluoromethyl)-4H-[1,3]diazino[1,2-a]pyrimidin-4-one], for which the IC50 came out at 153 nM. Compared with the last compound, the IC50 is about 28-fold higher.

On to `O=c1c(-c2cnn(CC(F)(F)C(F)(F)F)c2)c(C(F)(F)F)nc2ccc(N3CCC3)cn12` [Example 39-28, 7-(azetidin-1-yl)-3-[1-(2,2,3,3,3-pentafluoropropyl)-1H-pyrazol-4-yl]-2-(trifluoromethyl)-4H-pyrido[1,2-a]pyrimidin-4-one], for which the IC50 is > 67000 nM.

With `C[S@+]([O-])c1ccn2c(=O)c(-c3ccc(OCC(F)(F)F)cc3)c(C(F)(F)F)nc2c1` [Example 15-3, 8-((S)-methylsulfinyl)-3-(4-(2,2,2-trifluoroethoxy)phenyl)-2-(trifluoromethyl)-4H-pyrido[1,2-a]pyrimidin-4-one], inhibition was half-maximal at 235 nM (IC50).

`C[S@+]([O-])c1ccn2c(=O)c(-c3cnn(CC(F)(F)C(F)(F)F)c3)c(C(F)(F)F)nc2c1` [Example 15-5, 8-((S)-methylsulfinyl)-3-(1-(2,2,3,3,3-pentafluoropropyl)-1H-pyrazol-4-yl)-2-(trifluoromethyl)-4H-pyrido[1,2-a]pyrimidin-4-one]: the IC50 was 159 nM.
